Test results taken from patent US10125098B2, “Therapeutic compounds and methods of use thereof” (GENENTECH, INC., priority 2014, dated 2018).
Counter-ions that a name gives are not always drawn. Like-named read-outs stand apart in the source and are kept apart here.

Assays:
hNav1.7 = molecular target: T1, hNav1.7 (Homo sapiens, UniProt Q15858); assay: Tritiated compound binding (LBA) to membranes from cells expressing hNav1.7 and the β1 subunit, competitive binding; conditions: competitive binding vs 100 pM [3H]compound, 18 h, room temperature, membranes with hNav1.7 and β1 subunit
T1 construct: expressed in transfected cells
Experimental: Tritiated Compound Binding to Membranes
Isolated from Cells that Heterologously Express hNav1.7 and the β1 Subunit
Preparation of membranes containing recombinantly expressed sodium channels: Frozen recombinant cell pellets were thawed on ice and diluted to 4 times the cell pellet weight with ice cold 50 mM Tris HCl, pH 7.4 buffer. The cell suspensions were homogenized on ice using a motorized glass dounce homogeniser. […] The supernatants were collected and centrifuged at 10000×g at 4° C. for 50 min. The pellets were then re-suspended in 100 mM NaCl, 20 mM Tris HCl, pH 7.4 buffer containing 1% v/v protease inhibitors (Calbiochem) and re-homogenized on ice. The homogenized membranes were then processed through a syringe equipped with a 26 gauge needle. Protein concentrations were determined by Bradford Assay and the membranes were stored at −80° C.
Saturation experiments. A representative compound of formula (I) having a methyl group was tritiated. Three tritiums were incorporated in place of methyl hydrogens to generate [^3H]compound. Binding of this radioligand was performed in 5 mL borosilicate glass test tubes at room temperature. Binding was initiated by adding membranes to increasing concentrations of [^3H]compound in 100 mM NaCl, 20 mM Tris HCl, pH 7.4 buffer containing 0.01% w/v bovine serum albumin (BSA) for 18 h. Non-specific binding was determined in the presence of 1 μM unlabeled compound. After 18 h, the reactants were filtered through GF/C glass fiber filters presoaked in 0.5% w/v polyethylene imine. […] [^3H]compound bound to filters was quantified by liquid scintillation counting.
Binding reactions were performed in 96-well polypropylene plates at room temperature for 18 h. In 360 μL, membranes were incubated with 100 pM [^3H]compound and increasing concentrations of Test Compound. Non-specific binding was defined in the presence of 1 μM unlabeled compound. Reactions were transferred and filtered through 96-well glass fiber/C filter plates presoaked with 0.5% polyethylene imine. […] Bound radioactivity was determined by liquid scintillation counting.
Data Analysis: For saturation experiments, non-specific binding was subtracted from total binding to provide specific binding and these values were recalculated in terms of pmol ligand bound per mg protein. Saturation curves were constructed and dissociation constants were calculated using the single site ligand binding model: Beq=(Bmax*X)/(X+Kd), where Beq is the amount of ligand bound at equilibrium, Bmax is the maximum receptor density, Kd is the dissociation constant for the ligand, and X is the free ligand concentration. For competition studies percent inhibition was determined and IC50 values were calculated using a 4 parameter logistic model (% inhibition=(A+((B−A)/(1+((x/C)^D)))) using XLfit, where A and B are the maximal and minimum inhibition respectively, C is the IC50 concentration and D is the (Hill) slope.

human NaV1.7 = molecular target: T2, human NaV1.7 (Homo sapiens, UniProt Q15858); assay: Patch voltage clamp electrophysiology assay (EP), NaV1.7; format: cell-based; conditions: HEK-293 cells stably expressing NaV1.7 with β1 subunit; whole-cell patch clamp, membrane potential −60 mV (inactivated state)
T2 construct: permanently transfected with an expression vector containing the full-length cDNA coding for the desired human sodium channel α-subunit; expressed in transfected cells; host or cells: HEK-293
Experimental: (§1) The following patch voltage clamp electrophysiology studies were performed on representative compounds of the invention using human embryonic kidney cells (HEK), permanently transfected with an expression vector containing the full-length cDNA coding for the desired human sodium channel α-subunit, grown in culture media containing 10% FBS, 1% PSG, and 0.5 mg/mL G418 at 37° C. with 5% CO2. […] NaV1.7 and NaV1.5 cDNAs (NM_002977 and AC137587; SCN5A, respectively) were stably expressed in HEK-293 cells. The β1 subunit was coexpressed in both the NaV1.7 and NaV1.5 cell lines.
(§2) Sodium currents were measured using the patch clamp technique in the whole-cell configuration using either a PatchXpress automated voltage clamp or manually using an Axopatch 200B (Axon Instruments) or Model 2400 (A-M systems) amplifier. The manual voltage clamp protocol was as follows: Borosilicate glass micropipettes were fire-polished to a tip diameter yielding a resistance of 2-4 Mohms in the working solutions. The pipette was filled with a solution comprised of: 5 mM NaCl, 10 mM CsCl, 120 mM CsF, 0.1 mM CaCl2, 2 mM MgCl2, 10 mM HEPES, 10 mM EGTA; and adjusted to pH 7.2 with CsOH. The external solution had the following composition: 140 mM NaCl, 5 mM KCl, 2 mM CaCl2, 1 mM MgCl2, 10 mM HEPES; and adjusted to pH 7.4 with NaOH. In some studies, the external sodium was reduced by equimolar replacement with choline. Osmolarity in the CsF internal and NaCl external solutions was adjusted to 300 mOsm/kg and 310 mOsm/kg with glucose, respectively. All recordings were performed at ambient temperature in a bath chamber with a volume of 150 μL. Control sodium currents were measured in 0.5% DMSO. Controls and representative compounds of the invention were applied to the recording chamber through a 4-pinch or 8-pinch valve bath perfusion system manufactured by ALA Scientific Instruments.
(§3) Series resistance compensation was applied (60-80%). […] All statistics in this study are given as mean±SD.
(§4) The membrane potential was maintained at a voltage where inactivation of the channel is complete (which was −60 mV for both NaV1.7 and NaV1.5). The voltage is then stepped back to a very negative (Vhold=[…]) voltage for 20 ms and then a test pulse is applied to quantify the compound block. […] The percent decrease in sodium current following wash-on of compound was taken as the percent block of sodium channels.

NaV1.5 = molecular target: T3, NaV1.5 (Homo sapiens, UniProt Q14524); assay: Patch voltage clamp electrophysiology assay (EP), NaV1.5; format: cell-based; conditions: HEK-293 cells stably expressing NaV1.5 with β1 subunit, whole-cell patch clamp, membrane potential −60 mV (inactivated state)
T3 construct: permanently transfected with an expression vector containing the full-length cDNA coding for the desired human sodium channel α-subunit; expressed in transfected cells; host or cells: HEK-293
Experimental: as §1, §2, §3, §4

[1] = human, HEK-293 cells stably expressing human NaV1.5 with β1 subunit, pH 7.4

T1 sequence (Q15858 1-1977 isoform Q15858-3): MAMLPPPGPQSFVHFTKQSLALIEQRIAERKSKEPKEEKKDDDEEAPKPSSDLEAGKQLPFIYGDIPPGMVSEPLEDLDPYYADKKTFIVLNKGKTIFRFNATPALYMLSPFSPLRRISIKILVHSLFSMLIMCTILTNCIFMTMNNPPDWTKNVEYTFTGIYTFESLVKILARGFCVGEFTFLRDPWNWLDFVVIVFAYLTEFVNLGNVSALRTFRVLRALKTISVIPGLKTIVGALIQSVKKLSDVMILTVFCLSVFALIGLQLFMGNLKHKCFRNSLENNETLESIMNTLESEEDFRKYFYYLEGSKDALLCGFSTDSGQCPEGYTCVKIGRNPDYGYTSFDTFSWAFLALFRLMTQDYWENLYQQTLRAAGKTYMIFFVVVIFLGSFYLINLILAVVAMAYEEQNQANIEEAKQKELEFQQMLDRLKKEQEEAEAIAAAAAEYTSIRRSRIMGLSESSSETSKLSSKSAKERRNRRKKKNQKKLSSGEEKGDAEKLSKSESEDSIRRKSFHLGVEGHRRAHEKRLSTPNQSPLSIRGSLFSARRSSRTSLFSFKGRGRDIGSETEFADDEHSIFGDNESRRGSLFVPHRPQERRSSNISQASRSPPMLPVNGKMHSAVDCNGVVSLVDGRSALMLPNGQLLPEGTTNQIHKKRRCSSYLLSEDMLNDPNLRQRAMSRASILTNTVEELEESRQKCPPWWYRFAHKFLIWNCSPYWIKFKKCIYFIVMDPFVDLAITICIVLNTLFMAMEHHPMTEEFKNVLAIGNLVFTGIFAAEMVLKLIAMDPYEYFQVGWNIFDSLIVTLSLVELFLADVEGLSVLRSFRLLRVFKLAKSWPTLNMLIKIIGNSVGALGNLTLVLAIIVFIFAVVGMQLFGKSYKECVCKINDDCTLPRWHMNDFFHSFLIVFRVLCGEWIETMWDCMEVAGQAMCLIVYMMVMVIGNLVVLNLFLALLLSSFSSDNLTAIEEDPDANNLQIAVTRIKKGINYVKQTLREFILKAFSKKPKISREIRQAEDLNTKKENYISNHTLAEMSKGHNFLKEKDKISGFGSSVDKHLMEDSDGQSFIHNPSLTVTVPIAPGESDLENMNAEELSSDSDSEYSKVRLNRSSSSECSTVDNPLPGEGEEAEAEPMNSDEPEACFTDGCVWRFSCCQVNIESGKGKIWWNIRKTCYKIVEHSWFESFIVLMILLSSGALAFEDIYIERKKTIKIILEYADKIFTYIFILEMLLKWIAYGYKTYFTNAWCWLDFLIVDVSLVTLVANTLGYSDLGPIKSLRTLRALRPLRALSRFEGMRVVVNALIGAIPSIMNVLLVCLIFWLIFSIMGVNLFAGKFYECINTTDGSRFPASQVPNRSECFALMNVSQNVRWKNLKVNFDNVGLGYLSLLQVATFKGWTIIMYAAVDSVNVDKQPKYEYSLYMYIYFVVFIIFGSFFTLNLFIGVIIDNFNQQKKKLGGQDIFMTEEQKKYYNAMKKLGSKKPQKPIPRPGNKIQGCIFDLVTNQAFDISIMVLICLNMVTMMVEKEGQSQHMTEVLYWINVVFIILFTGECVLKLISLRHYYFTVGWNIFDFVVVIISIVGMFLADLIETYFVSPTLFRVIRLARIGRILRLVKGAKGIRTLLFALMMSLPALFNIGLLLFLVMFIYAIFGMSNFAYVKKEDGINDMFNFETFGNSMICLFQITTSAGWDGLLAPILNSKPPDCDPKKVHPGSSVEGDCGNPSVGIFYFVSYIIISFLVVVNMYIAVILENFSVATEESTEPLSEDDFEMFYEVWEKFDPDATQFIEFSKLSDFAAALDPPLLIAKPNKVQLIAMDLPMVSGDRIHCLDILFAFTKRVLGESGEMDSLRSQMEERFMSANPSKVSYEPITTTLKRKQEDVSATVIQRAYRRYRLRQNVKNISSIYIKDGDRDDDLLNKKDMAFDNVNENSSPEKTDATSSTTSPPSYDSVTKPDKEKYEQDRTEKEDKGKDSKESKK
T1 sequence (Q07699 19-218 partner): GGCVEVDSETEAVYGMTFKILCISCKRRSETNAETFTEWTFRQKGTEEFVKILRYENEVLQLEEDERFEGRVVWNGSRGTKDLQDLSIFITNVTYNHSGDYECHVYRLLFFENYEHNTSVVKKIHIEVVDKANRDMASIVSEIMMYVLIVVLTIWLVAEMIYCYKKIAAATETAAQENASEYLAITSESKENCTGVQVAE
T2 sequence (Q15858 1-1977 isoform Q15858-3): as the sequence (Q15858 1-1977 isoform Q15858-3) above
T2 sequence (Q07699 19-218 partner): as the sequence (Q07699 19-218 partner) above
T3 sequence (Q14524 whole entry): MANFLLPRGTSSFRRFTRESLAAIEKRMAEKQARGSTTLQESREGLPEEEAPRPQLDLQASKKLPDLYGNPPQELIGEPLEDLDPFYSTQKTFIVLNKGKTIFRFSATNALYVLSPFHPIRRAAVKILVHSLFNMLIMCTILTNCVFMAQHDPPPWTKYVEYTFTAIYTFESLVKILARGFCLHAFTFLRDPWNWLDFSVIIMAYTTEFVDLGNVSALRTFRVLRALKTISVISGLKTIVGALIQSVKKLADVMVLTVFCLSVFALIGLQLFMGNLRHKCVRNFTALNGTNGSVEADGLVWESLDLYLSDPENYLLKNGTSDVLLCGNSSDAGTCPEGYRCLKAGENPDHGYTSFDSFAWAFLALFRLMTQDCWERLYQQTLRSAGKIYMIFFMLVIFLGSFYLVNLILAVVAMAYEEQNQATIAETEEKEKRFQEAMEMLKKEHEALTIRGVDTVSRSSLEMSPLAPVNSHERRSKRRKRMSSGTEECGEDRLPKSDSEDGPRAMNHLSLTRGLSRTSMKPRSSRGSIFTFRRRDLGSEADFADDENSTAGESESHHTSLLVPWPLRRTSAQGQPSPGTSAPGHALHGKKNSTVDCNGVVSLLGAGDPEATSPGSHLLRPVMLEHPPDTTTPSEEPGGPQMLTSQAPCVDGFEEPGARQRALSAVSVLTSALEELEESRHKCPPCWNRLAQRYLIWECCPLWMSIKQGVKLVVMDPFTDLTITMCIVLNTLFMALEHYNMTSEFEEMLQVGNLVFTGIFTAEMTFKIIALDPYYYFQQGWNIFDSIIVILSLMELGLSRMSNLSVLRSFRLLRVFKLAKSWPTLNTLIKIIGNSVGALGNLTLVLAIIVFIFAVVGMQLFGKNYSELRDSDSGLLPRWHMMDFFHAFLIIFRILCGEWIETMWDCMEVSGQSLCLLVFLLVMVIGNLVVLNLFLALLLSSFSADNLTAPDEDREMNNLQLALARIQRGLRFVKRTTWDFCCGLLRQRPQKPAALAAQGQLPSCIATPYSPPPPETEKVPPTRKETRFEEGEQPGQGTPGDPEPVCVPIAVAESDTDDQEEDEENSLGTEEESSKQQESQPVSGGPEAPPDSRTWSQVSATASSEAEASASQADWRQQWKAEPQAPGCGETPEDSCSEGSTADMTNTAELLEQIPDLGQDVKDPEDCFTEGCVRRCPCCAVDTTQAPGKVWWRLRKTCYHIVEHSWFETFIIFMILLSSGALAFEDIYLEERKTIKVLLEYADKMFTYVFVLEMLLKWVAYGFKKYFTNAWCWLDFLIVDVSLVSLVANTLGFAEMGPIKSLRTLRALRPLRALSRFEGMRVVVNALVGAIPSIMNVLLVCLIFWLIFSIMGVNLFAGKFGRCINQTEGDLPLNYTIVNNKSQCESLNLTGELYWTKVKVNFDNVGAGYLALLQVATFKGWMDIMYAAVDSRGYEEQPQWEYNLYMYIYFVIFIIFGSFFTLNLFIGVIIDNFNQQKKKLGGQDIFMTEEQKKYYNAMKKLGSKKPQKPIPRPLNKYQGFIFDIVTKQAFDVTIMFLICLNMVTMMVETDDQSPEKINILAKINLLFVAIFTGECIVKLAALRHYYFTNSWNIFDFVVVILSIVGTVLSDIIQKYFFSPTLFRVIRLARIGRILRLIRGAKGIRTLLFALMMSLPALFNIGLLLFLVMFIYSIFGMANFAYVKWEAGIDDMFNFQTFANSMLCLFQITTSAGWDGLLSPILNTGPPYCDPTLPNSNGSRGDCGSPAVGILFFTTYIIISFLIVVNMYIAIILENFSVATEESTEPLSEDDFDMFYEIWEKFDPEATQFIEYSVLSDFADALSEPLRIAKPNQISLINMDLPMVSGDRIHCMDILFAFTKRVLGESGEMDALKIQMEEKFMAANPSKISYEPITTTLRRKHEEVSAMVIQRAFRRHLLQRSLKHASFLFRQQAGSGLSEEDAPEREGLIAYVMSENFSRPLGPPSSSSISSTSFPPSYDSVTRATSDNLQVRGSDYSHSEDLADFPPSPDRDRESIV

| Structure (SMILES) | IC50 (hNav1.7) [µM] | IC50 (human NaV1.7) [µM] | IC50 (NaV1.5; read-out: Nav1.5) [µM] | IC50 (NaV1.5; [1]) [µM] |
| --- | --- | --- | --- | --- |
| O=C(O)[C@@H]1[C@@H]2C[C@@H]2CN1C(=O)c1cc(C2CC2)c(OCC23CC4CC(CC(C4)C2)C3)cc1F (racemic) [Example 61, racemate-(1R, 3S, 5R)-2-(4-((adamantan-1-yl)methoxy)-5-cyclopropyl-2-fluorobenzoyl)-2-azabicyclo[3.1.0]hexane-3-carboxylic acid] | 0.97 | 2.7 | 12 | – |
| C[C@H](c1cc(Cl)cc(Cl)c1)N1CCC[C@H](COc2cc(F)c(C(=O)N3CCC[C@H]3C(=O)O)cc2C2CC2)C1 (single isomer, unassigned) [Example 73a] | 0.36 | 2.2 | 12 | – |
| C[C@@H](c1cc(Cl)cc(Cl)c1)N1CCC[C@H](COc2cc(F)c(C(=O)N3CCC[C@H]3C(=O)O)cc2C2CC2)C1 (single isomer, unassigned) [Example 73b] | 0.093 | 1.5 | 22 | – |
| C[C@@H](c1cc(Cl)cc(Cl)c1)N1CCC(COc2cc(F)c(C(=O)N3CCC[C@H]3C(=O)O)cc2C2CC2)CC1 (single isomer, unassigned) [Example 79a] | 0.047 | 0.69 | – | ≥ 30 |
| CC(c1cc(Cl)cc(Cl)c1)N1CCC(COc2cc(F)c(C(=O)N3CCC[C@H]3C(=O)O)cc2C2CC2)CC1 (single isomer, unassigned) [Example 79b] | 0.073 | 0.79 | – | ≥ 30 |
| O=C(O)[C@@H]1CCCN1C(=O)c1cc(C2CC2)c(OC2C3CC4CC2CC(Cl)(C4)C3)cc1F (single isomer, unassigned) [Example 80] | 0.59 | 1.5 | – | ≥ 30 |
| O=C(O)[C@@H]1CCCN1C(=O)c1cc(Cl)c(OC2C3CC4CC2CC(Cl)(C4)C3)cc1F (single isomer, unassigned) [Example 81] | 8.9 | 16 | – | ≥ 30 |
| CC1(COc2cc(F)c(C(=O)N[C@H](C(=O)O)C3CC3)cc2C2CC2)CN([C@H](c2ccccc2)c2cc(Cl)cc(Cl)c2)C1 (single isomer, unassigned) [Example 113] | 0.0076 | 0.61 | 15 | – |
| CC1(COc2cc(F)c(C(=O)N[C@H](C(=O)O)C3CC3)cc2C2CC2)CN([C@@H](c2ccccc2)c2cc(Cl)cc(Cl)c2)C1 (single isomer, unassigned) [Example 114] | 0.02 | 1.7 | 13 | – |
| C[C@H]1CCN(C(=O)c2cc(C3CC3)c(OCC3(C)CN([C@H](c4ccccc4)c4cc(Cl)cc(Cl)c4)C3)cc2F)[C@@H]1C(=O)O (single isomer, unassigned) [Example 115] | 0.0077 | 0.3 | 11 | – |
| C[C@H]1CCN(C(=O)c2cc(C3CC3)c(OCC3(C)CN([C@@H](c4ccccc4)c4cc(Cl)cc(Cl)c4)C3)cc2F)[C@@H]1C(=O)O (single isomer, unassigned) [Example 116] | 0.012 | 0.58 | 15 | – |
| CC1(COc2cc(F)c(C(=O)N3C[C@H](F)C[C@H]3C(=O)O)cc2C2CC2)CN([C@@H](c2ccccc2)c2cc(Cl)cc(Cl)c2)C1 (single isomer, unassigned) [Example 117] | 0.023 | 0.51 | 8.5 | – |
| O=C(N[C@H](C(=O)O)C1CC1)c1cc(C2CC2)c(OCC2CCN([C@H](c3ccccc3)c3cc(Cl)cc(Cl)c3)CC2)cc1F (single isomer, unassigned) [Example 118] | 0.021 | 0.76 | 15 | – |
| O=C(O)[C@@H]1CC(F)(F)CN1C(=O)c1cc(C2CC2)c(OCC23CC4CC(CC(C4)C2)C3)cc1F [Example 48, (2S)-1-[4-(1-adamantylmethoxy)-5-cyclopropyl-2-fluoro-benzoyl]-4,4-difluoro-pyrrolidine-2-carboxylic acid] | 0.04 | 0.64 | – | – |
| O=C(O)[C@@H]1C[C@@H](F)CN1C(=O)c1cc(C2CC2)c(OCC23CC4CC(CC(C4)C2)C3)cc1F [Example 49, (2S,4R)-1-[4-(1-adamantylmethoxy)-5-cyclopropyl-2-fluoro-benzoyl]-4-fluoro-pyrrolidine-2-carboxylic acid] | 0.01 | 0.23 | – | – |
| O=C(O)[C@@H]1CCCN1C(=O)c1cc(C2CC2)c(O[C@H]2CCCN(Cc3ccc(F)cc3Cl)C2)cc1F [Example 95, (S)-1-(4-(((S)-1-(2-chloro-4-fluorobenzyl)piperidin-3-yl)oxy)-5-cyclopropyl-2-fluorobenzoyl)pyrrolidine-2-carboxylic acid] | ≥ 10 | – | – | ≥ 30 |
| C[C@@H](c1cc(Cl)cc(Cl)c1)N1CCC(COc2cc(F)c(C(=O)N3C[C@H](F)C[C@H]3C(=O)O)cc2C2CC2)CC1 [Example 100] | – | – | 18 | – |
| C[C@@H]1CC[C@@H](C(=O)O)N1C(=O)c1cc(C2CC2)c(OCC23CC4CC(CC(C4)C2)C3)cc1F [Example 152, (2S,5R)-1-[4-(1-adamantylmethoxy)-5-cyclopropyl-2-fluoro-benzoyl]-5-methyl-pyrrolidine-2-carboxylic acid] | – | – | 13 | – |
| C[C@H]1CC[C@@H](C(=O)O)N1C(=O)c1cc(C2CC2)c(OCC23CC4CC(CC(C4)C2)C3)cc1F [Example 153, (2S,5S)-1-[4-(1-adamantylmethoxy)-5-cyclopropyl-2-fluoro-benzoyl]-5-methyl-pyrrolidine-2-carboxylic acid] | – | – | 19 | – |
| C[C@@H](c1cc(Cl)cc(Cl)c1)N1CCC(COc2cc(F)c(C(=O)N3C[C@H](F)C[C@H]3C(=O)O)cc2C2CC2)CC1 [Example 158, (2S,4R)-1-[5-cyclopropyl-4-[[1-[(1S)-1-(3,5-dichlorophenyl)ethyl]-4-piperidyl]methoxy]-2-fluoro-benzoyl]-4-fluoro-pyrrolidine-2-carboxylic acid] | – | – | – | ≥ 30 |
| Nc1noc2ccc(-c3cc(Cl)ccc3Oc3cc(F)c(C(=O)N4CCC[C@H]4C(=O)O)cc3F)cc12 [Example 192, (S)-1-(4-(2-(3-aminobenzo[d]isoxazol-5-yl)-4-chlorophenoxy)-2,5-difluorobenzoyl)pyrrolidine-2-carboxylic acid trifluoroacetate] | ≥ 10 | – | – | ≥ 30 |
